Values quoted from earlier work in patent publication US20050239743A1, “Compositions and methods to inhibit restenosis” (Pro-Pharmaceuticals, Inc., priority 2004, published 2005).

Conditions: long-term use 10,000 units/day, s.c., following coronary angioplasty

abnormal hemorrhage supervening: 41%
Substance: heparin
coronary restenosis, share of the cases (control restenosis value 33%): 82%
